From patent US12077503B2, “Substituted cyclic amides and their use as herbicides” (FMC CORPORATION, priority 2015, dated 2024)

Assays:
Type in all cases: in vivo
[1] = system: rice (Oryra sativa); test: Test B flooded paddy test; conditions: Flood, 0 to 100 scale where 0 is no effect and 100 is complete control, 13 to 15 d
Method in brief: (§1)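 Rating scale 0–100 (visual, vs untreated controls) after a 13–15 d greenhouse period; application to the flood layer, 3 cm above soil and maintained; plants at 2-leaf stage when treated.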

[2] = system: sedge, umbrella (small-flower umbrella sedge, Cyperus difformis); test: Test B flooded paddy test; conditions: Flood, 0 to 100 scale where 0 is no effect and 100 is complete control, 13 to 15 d
Method in brief: as §1

[3] = system: barnyardgrass (Echinochloa crus-galli); test: Test B flooded paddy test; conditions: Flood, 0 to 100 scale where 0 is no effect and 100 is complete control, 13 to 15 d
Method in brief: as §1

[4] = system: ducksalad (Heteranthera limosa); test: Test B flooded paddy test; conditions: Flood, 0 to 100 scale where 0 is no effect and 100 is complete control, 13 to 15 d
Method in brief: as §1

[5] = system: Kochia (Kochia scoparia); test: Test A postemergence
Method in brief: (§2)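 Visual injury, scored on a 0–100 scale relative to untreated controls, was recorded about 10 d after application. Treatments were a preemergence soil spray over planted seeds or a postemergence spray on plants at the one- to two-leaf stage, 2 to 10 cm tall, all in loam soil–sand blend in the greenhouse.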

[6] = system: ryegrass, Italian (Italian ryegrass, Lolium multiflorum); test: Test A postemergence
Method in brief: as §2

[7] = system: Galium (catchweed bedstraw, Galium aparine); test: Test A postemergence
Method in brief: as §2

[8] = system: corn (Zea mays); test: Test A postemergence
Method in brief: as §2

[9] = system: blackgrass (Alopecurus myosuroides); test: Test A postemergence
Method in brief: as §2

[10] = system: giant foxtail (Setaria faberii); test: Test A postemergence
Method in brief: as §2

[11] = system: ragweed (common ragweed, Ambrosia elatior); test: Test A postemergence
Method in brief: as §2

[12] = system: wheat (Triticum aestivum); test: Test A postemergence
Method in brief: as §2

[13] = system: pigweed (Amaranthus retroflexus); test: Test A postemergence
Method in brief: as §2

[14] = system: barnyardgrass (Echinochloa crus-galli); test: Test A postemergence
Method in brief: as §2

[15] = system: Kochia (Kochia scoparia); test: Test A preemergence
Method in brief: as §2

[16] = system: ryegrass, Italian (Italian ryegrass, Lolium multiflorum); test: Test A preemergence
Method in brief: as §2

[17] = system: giant foxtail (Setaria faberii); test: Test A preemergence
Method in brief: as §2

[18] = system: ragweed (common ragweed, Ambrosia elatior); test: Test A preemergence
Method in brief: as §2

[19] = system: pigweed (Amaranthus retroflexus); test: Test A preemergence
[20] = system: barnyardgrass (Echinochloa crus-galli); test: Test A preemergence
Method in brief: as §2

[21] = 125 g ai/ha, postemergence, visual rating after approx. 10 d, 0 to 100 scale (0 no effect, 100 complete control)
[22] = Postemergence, 500 g ai/ha, 0 to 100 scale where 0 is no effect and 100 is complete control
[23] = 125 g ai/ha, Preemergence, visual injury after approximately 10 d, 0 to 100 scale where 0 is no effect and 100 is complete control
[24] = Preemergence, 500 g ai/ha, visual injury approx. 10 d
[25] = 500 g ai/ha, preemergence, 0 to 100 scale, 0 = no effect, 100 = complete control
[26] = 500 g ai/ha, postemergence, visual injury, 0 to 100 scale (0 no effect, 100 complete control), approx. 10 d

| Structure (SMILES) | Plant response rating, Rice ([1]; 250 g ai/ha) | Plant response rating, Sedge, Umbrella ([2]; 250 g ai/ha) | Plant response rating, Barnyardgrass ([3]; 250 g ai/ha) | Plant response rating, Ducksalad ([4]; 250 g ai/ha) | Plant response rating, Kochia [5, 21] | Plant response rating, Ryegrass, Italian [6, 21] | Plant response rating, Galium [7, 21] | Plant response rating, Corn [8, 21] | Plant response rating, Blackgrass [9, 21] | Plant response rating, Foxtail, Giant [10, 21] | Plant response rating, Ragweed [11, 21] | Plant response rating, Wheat [12, 21] | Plant response rating, Pigweed [13, 21] | Plant response rating, Barnyardgrass [14, 21] | Plant response rating, Kochia [15, 23] | Plant response rating, Ryegrass, Italian [16, 23] | Plant response rating, Foxtail, Giant [17, 23] | Plant response rating, Ragweed [18, 23] | Plant response rating, Pigweed [19, 23] | Plant response rating, Barnyardgrass [20, 23] | also measured |
| --- | --- | --- | --- | --- | --- | --- | --- | --- | --- | --- | --- | --- | --- | --- | --- | --- | --- | --- | --- | --- | --- |
| O=C1NCC(c2ccsc2Br)C1C(=O)Nc1ccccc1F (stereo not drawn) [Compound 597] | 0 | 0 | 0 | 50 | 0 | 0 | 0 | 0 | 0 | 0 | 0 | 0 | 0 | 0 | 0 | 0 | 20 | 0 | 0 | 20 | Plant response rating, Kochia [5, 22]: 0; Plant response rating, Ryegrass, Italian [6, 22]: 0; Plant response rating, Galium [7, 22]: 20; Plant response rating, Corn [8, 22]: 20; Plant response rating, Blackgrass [9, 22]: 20; Plant response rating, Foxtail, Giant [10, 22]: 30; Plant response rating, Ragweed [11, 22]: 0; Plant response rating, Wheat [12, 22]: 20; Plant response rating, Pigweed [13, 22]: 0; Plant response rating, Barnyardgrass [14, 22]: 30; Kochia plant response rating (0 to 100 scale, 0 is no effect, 100 is complete control) [15, 24]: 20; Ryegrass, Italian plant response rating (0 to 100 scale, 0 is no effect, 100 is complete control) [16, 24]: 0; Foxtail, Giant plant response rating (0 to 100 scale, 0 is no effect, 100 is complete control) [17, 24]: 80; Ragweed plant response rating (0 to 100 scale, 0 is no effect, 100 is complete control) [18, 24]: 0; Pigweed plant response rating (0 to 100 scale, 0 is no effect, 100 is complete control) [19, 24]: 0; Barnyardgrass plant response rating (0 to 100 scale, 0 is no effect, 100 is complete control) [20, 24]: 70 |
| O=C1NCC(c2cc(F)c(F)cc2F)C1C(=O)Nc1ccc(F)c(F)c1F (stereo not drawn) [Compound 614] | 10 | 0 | 65 | 100 | 0 | 0 | 30 | 0 | 30 | 80 | 0 | 0 | 0 | 80 | 0 | 0 | 90 | 0 | 0 | 50 | Plant response rating, Kochia [5, 22]: 50; Plant response rating, Ryegrass, Italian [6, 22]: 20; Plant response rating, Galium [7, 22]: 40; Plant response rating, Corn [8, 22]: 20; Plant response rating, Blackgrass [9, 22]: 70; Plant response rating, Foxtail, Giant [10, 22]: 90; Plant response rating, Ragweed [11, 22]: 0; Plant response rating, Wheat [12, 22]: 40; Plant response rating, Pigweed [13, 22]: 30; Plant response rating, Barnyardgrass [14, 22]: 90; Plant response rating, Kochia [15, 25]: 20; Plant response rating, Ryegrass, Italian [16, 25]: 20; Plant response rating, Foxtail, Giant [17, 25]: 90; Plant response rating, Ragweed [18, 25]: 0; Plant response rating, Pigweed [19, 25]: 0; Plant response rating, Barnyardgrass [20, 25]: 90 |
| CN1CC(c2ccc(C(F)(F)F)cc2)C(C(=O)Nc2ccc(F)cc2F)C1=O (stereo not drawn) [Compound 625] | 0 | 0 | 40 | 100 | 30 | 20 | 30 | 10 | 30 | 90 | 0 | 0 | 20 | 80 | 50 | 30 | 90 | 20 | 50 | 80 | Plant response rating, Kochia [5, 22]: 50; Plant response rating, Ryegrass, Italian [6, 22]: 30; Plant response rating, Galium [7, 22]: 60; Plant response rating, Corn [8, 22]: 50; Plant response rating, Blackgrass [9, 22]: 40; Plant response rating, Foxtail, Giant [10, 22]: 90; Plant response rating, Ragweed [11, 22]: 20; Plant response rating, Wheat [12, 22]: 50; Plant response rating, Pigweed [13, 22]: 50; Plant response rating, Barnyardgrass [14, 22]: 90; Plant response rating, Kochia [15, 25]: 80; Plant response rating, Ryegrass, Italian [16, 25]: 50; Plant response rating, Foxtail, Giant [17, 25]: 90; Plant response rating, Ragweed [18, 25]: 60; Plant response rating, Pigweed [19, 25]: 90; Plant response rating, Barnyardgrass [20, 25]: 90 |
| NS(=O)(=O)c1ccccc1NC(=O)C1C(=O)NCC1c1cccc(C(F)(F)F)c1 (stereo not drawn) [Compound 634] | – | – | – | – | 0 | 0 | 30 | 0 | 0 | 50 | 0 | 0 | 0 | 40 | 0 | 0 | 60 | 0 | 0 | 20 | Plant response rating, Rice ([1]; 500 g ai/ha): 15; Plant response rating, Sedge, Umbrella ([2]; 500 g ai/ha): 0; Plant response rating, Barnyardgrass ([3]; 500 g ai/ha): 20; Plant response rating, Ducksalad ([4]; 500 g ai/ha): 40; Plant response rating, Kochia [5, 26]: 0; Plant response rating, Ryegrass, Italian [6, 26]: 20; Plant response rating, Galium [7, 26]: 60; Plant response rating, Corn [8, 22]: 0; Plant response rating, Blackgrass [9, 22]: 0; Plant response rating, Foxtail, Giant [10, 26]: 80; Plant response rating, Ragweed [11, 26]: 0; Plant response rating, Wheat [12, 26]: 0; Plant response rating, Pigweed [13, 26]: 0; Plant response rating, Barnyardgrass [14, 22]: 80; Plant response rating, Kochia [15, 25]: 0; Plant response rating, Ryegrass, Italian [16, 25]: 0; Plant response rating, Foxtail, Giant [17, 25]: 80; Plant response rating, Ragweed [18, 25]: 0; Plant response rating, Pigweed [19, 25]: 30; Plant response rating, Barnyardgrass [20, 25]: 70 |
| Cc1ccc(C2CNC(=O)C2C(=O)Nc2cccc(F)c2F)cc1C(F)(F)F (stereo not drawn) [Compound 642] | 30 | 0 | 30 | 100 | 20 | 40 | 50 | 50 | 20 | 20 | 0 | 0 | 0 | 70 | 40 | 50 | 90 | 0 | 50 | 90 | Plant response rating, Kochia [5, 26]: 50; Plant response rating, Ryegrass, Italian [6, 26]: 50; Plant response rating, Galium [7, 26]: 70; Plant response rating, Corn [8, 26]: 70; Plant response rating, Blackgrass [9, 26]: 40; Plant response rating, Foxtail, Giant [10, 26]: 70; Plant response rating, Ragweed [11, 26]: 40; Plant response rating, Wheat [12, 26]: 20; Plant response rating, Pigweed [13, 26]: 20; Plant response rating, Barnyardgrass [14, 26]: 90; Plant response rating, Kochia [15, 25]: 60; Plant response rating, Ryegrass, Italian [16, 25]: 80; Plant response rating, Foxtail, Giant [17, 25]: 90; Plant response rating, Ragweed [18, 25]: 50; Plant response rating, Pigweed [19, 25]: 60; Plant response rating, Barnyardgrass [20, 25]: 90 |
